# Measured values as given in patent US20250127751A1, “Traditional Chinese Medicine Compound Preparation for Tumors and Application thereof” (priority 2023, published 2025).
# Where “and” joins values, the source holds several entries; their conditions need not be identical. Equal entries are not always repeated. Where two headings read alike, the source gives them in different places.
# Assays:
# Format in all cases: cell-based, human
# NB4 cells [1] = conditions: single compound 30 μM; dosed 10 d
# Experimental: When normal neutrophils or differentiated cells are stimulated, the production of intracellular superoxide anions increases. NBT receives hydrogen from NADPH in the differentiated cells and reduces into insoluble blue black or blue purple particles—formazane particles.
# NB4 cells at the logarithmic growth phase were seeded at a density of 2×10^5 cells/well into a 6-well plate, and dosed 24 h later. […] 24 h after the last dose, the culture medium was discarded, and the cells were washed twice with PBS. 500 μL of a 0.1% NBT solution (purchased from Sigma and prepared from PBS) containing 1 μg/ml of phorbol ester (PMA, purchased from Sigma) was added to each well, and the cells were incubated at 37° C. for 30 min, washed twice with PBS, and observed under a microscope. In a 400× magnification field, 200 cells were randomly counted from each specimen. Cells containing gray or black formazane particles in the cytoplasm were counted as NBT reduction positive cells, and the percentage of the reduction positive cells was calculated. The experiment was repeated three times.
# CD11b = test system: CD11b
# Experimental: (§1) In an immunological marker examination of APL cells, CD11b is negative and CD33 is positive. The surface antigen CD33 is associated with the degree of cellular immaturity, while the surface antigen CD11b is associated with the degree of cellular maturity, High expression of CD11b, as an adhesion molecule on the cell surface, may be a marker of cell differentiation maturation.
# (§2) NB4 cells at the logarithmic growth phase were seeded at a density of 2×10^5 cells/well into a 6-well plate, and dosed 24 h later. […] 24 h after the last dosing, cells were collected, centrifuged to remove the culture medium, washed twice with precooled PBS, and resuspended in 100 μL PBS. APC (allophycocyanin) and BB515 labeled CD11b and CD33 monoclonal antibodies and corresponding isotype antibodies (both purchased from BD, USA) were added respectively. Following mixing, the cells were incubated at 4° C. for 30 min, filtered through a cell filter membrane, and then detected.
# CD33 = test system: CD33
# Experimental: as §1, §2
# NB4 cells [2] = conditions: 24 h
# Experimental: The ANNEXIN V-FITC/PI double-staining method is established based on a principle of asymmetric loss of cell membrane in apoptotic cells, that is, externalization of phosphatidylserine. Determination of results: normal live cells: annexin V^−PI^−; apoptotic cells: annexin V^+PI^−, and necrotic or late apoptotic cells: annexin V^+PI^+.
# NB4 cells at the logarithmic growth phase were seeded at a density of 1×10^5 cells/well into a 6-well plate, and dosed 24 h later. The proapoptotic effect of each group was detected according to the dosing methods in Table 1. The cells were collected 24 h after drug dosing and detected on a flow cytometer according to the operating procedure of an ANNEXIN V-FITC/PI apoptosis detection kit (purchased from Solarbio). The experiment was repeated three times.
# NB4 cells [3] = conditions: 10 d; doses of Table 2 (alone 30 μM, pairs 15 μM each, DCI 10 μM each)
# Experimental: NB4 cells at the logarithmic growth phase were seeded at a density of 2×10^5 cells/well into a 6-well plate, and dosed 24 h later. […] NB4 cells cultured for 10 d were centrifuged at 110 g for 3 min, smeared, fixed with methanol, and air dried naturally. Then, the cell smear was stained with Wright's-Giemsa for morphological observation. The experiment was repeated three times.
# [4] = single compound 30 μM, dosed 10 d
structure (smiles),measurement,setting,value
"Nc1ncnc2c1ncn2[C@@H]1O[C@H](CO)C[C@H]1O [CDY, Cordycepin]",NBT reduction positive rate in NB4 cells (%),NB4 cells [1],3.19% and 3.19 ± 2.09%
same,Positive rate of CD11b expression in NB4 cells (%),CD11b; [4],1.79 ± 1.42%
same,Positive rate of CD33 expression in NB4 cells (%),CD33; [4],37.14 ± 15.90%
same,Apoptosis rate of NB4 cells (%),NB4 cells [2]; single compound 20 μM,10.70 ± 3.54%
same,Apoptosis rate of NB4 cells (%),NB4 cells [2]; single compound 40 μM,19.39 ± 5.64%
same,Morphology of NB4 cells,NB4 cells [3],no significant differences from the control group
"O=C1Nc2ccccc2/C1=C1/Nc2ccccc2C1=O [IDB, Indirubin]",NBT reduction positive rate in NB4 cells (%),NB4 cells [1],15.20% and 15.20 ± 4.10 %
same,Positive rate of CD11b expression in NB4 cells (%),CD11b,26.42 ± 10.91 %
same,Positive rate of CD33 expression in NB4 cells (%),CD33,27.50 ± 16.67 %
same,Apoptosis rate of NB4 cells (%),NB4 cells [2]; single compound 20 μM,28.88 ± 11.51%
same,Apoptosis rate of NB4 cells (%),NB4 cells [2]; single compound 40 μM,31.38 ± 8.92 %
